Data from patent US7572770B2, “Use of an interleukin 1 receptor antagonist and/or pyrrolidinedithiocarbamate for the treatment or prophylaxis of type 2 diabetes” (University of Zurich, priority 2002, dated 2009).

Legend:
human islets = assay: Insulin release and content of human islets; format: cell-based
Description: Islet isolation and culture. Islets were isolated from pancreases of eleven organ donors at the Department of Surgery, University of Geneva Medical Center, as described (32-34). The islet purity was >95%, as judged by dithizone staining (if this degree of purity was not primarily achieved by routine isolation, islets were handpicked). […] For long-term in vitro studies, the islets were cultured on extracellular matrix-coated plates derived from bovine corneal endothelial cells (Novamed Ltd., Jerusalem, Israel), allowing the cells to attach to the dishes and spread, preserving their functional integrity (7;35). Islets were cultured in CMRL 1066 medium containing 100 U/ml penicillin, 100 μg/ml streptomycin and 10% fetal calf serum (Gibco, Gaithersburg, Md.), hereinafter referred to as culture medium. Two days after plating, when most islets were attached and began to flatten, the medium was changed to culture medium containing 5.5, 11.1 or 33.3 mM glucose. In some experiments, islets were additionally cultured with 2 ng/ml recombinant human IL-1β, 1000 U/ml recombinant human IFNγ (ReproTech EC Ltd, London, UK), 500 ng/ml IL-1β receptor antagonist (IL-1Ra) (R&D Systems Inc., Minneapolis, Minn.), 1 ng/ml membrane bound Fas-ligand (FasL) (36) (upstate biotechnology, Lake Placid, N.Y.) or with 100 μM pyrrolidinedithiocarbamate (PDTC; Sigma; 2 h per 2 d of culture).
Insulin release and content. To determine acute insulin release in response to glucose stimulation, islets were washed in RPMI 1640 medium with 10% FCS and containing 3.3 mM glucose and pre-incubated for 1 h in the same medium. The medium was then discarded and replaced with fresh medium containing 3.3 mM glucose for 1 h for basal secretion, followed by an additional 1 h incubation in medium containing 16.7 mM glucose. Incubates were collected and frozen for insulin assays. […] Insulin was determined by a human insulin RIA kit (CIS bio international, Gif-Sur-Yvette, France).

IL-1β = IL-1β release and expression in human islets exposed to leptin; format: cell-based
Description: Islet isolation and cell culture. Islets were isolated from pancreases of ten organ donors at the Department of Surgery, University of Geneva Medical Center, as described (32-34). The islet purity was >95%, as judged by dithizone staining (if this degree of purity was not primarily achieved by routine isolation, islets were handpicked). […] For long-term in vitro studies, the islets were cultured on extracellular matrix-coated plates derived from bovine corneal endothelial cells (Novamed Ltd., Jerusalem, Israel), allowing the cells to attach to the dishes and spread, preserving their functional integrity (7;35). Islets were cultured in CMRL 1066 medium containing 100 U/ml penicillin, 100 μg/ml streptomycin and 10% fetal calf serum (Invitrogen Corporation, Paisley, U.K.), hereafter referred to as culture medium. Two days after plating, when most islets were attached and began to flatten, the medium was changed to culture medium containing 5.5, 11.1 or 33.3 mM glucose. In some experiments, islets were additionally cultured with 5, 10 or 500 nM rh leptin (PeproTech, London, UK), 500 ng/ml rh IL-1Ra (R&D Systems Inc., Minneapolis, Minn.) or 50 nM small interfering RNA (siRNA) as described below.
Detection of IL-1Ra and IL-1β expressing cells. Pancreases from routine necropsies were immersion-fixed in formalin, followed by paraffin embedding. In parallel, isolated human were cultured in a suspension for 48 hours and exposed to 10 nM leptin or 33.3 mM glucose, islets were fixed in Bouin solution for 15 min, resuspended in 40 μl of 2% melted agarose in PBS (40° C.), followed by rapid centrifugation and paraffin embedding. Sections were deparaffinized, rehydrated and then incubated in methanol for 4 min. Human islets cultured on extracellular matrix for 4 days were washed in PBS, fixed in 4% paraformaldehyde (30 min, room temperature) followed by permeabilization with 0.5% triton X-100 (4 min, room temperature). Pancreas and islet sections and cultured cells were double-labeled for IL-1Ra or IL-1β and insulin, CD68, glucagon or somatostatin by 1 h of exposure to 10% bovine serum albumin followed by incubation (1 h, 37° C.) with biotinylated goat anti-IL-1Ra or mouse anti-IL-1β antibodies (R&D Systems Inc.). […]
RNA extraction and RT-PCR. […] PCR conditions were: denaturation for 30 seconds at 94° C., annealing for 30 seconds at 60° C., and elongation for 30 seconds at 72° C., followed for real time PCR by quantification for 5 seconds at 82° C.; repetition for 40 cycles. […] For quantitative analysis, we used the LightCycler quantitative PCR system (Roche) and performed quantitative PCR with a commercial kit (LightCycler-DNA Master SYBR Green I; Roche). […]

Row | Substance | acute glucose-stimulated insulin release, co-incubation (human islets; 33.3 mM glucose or IL-1β for 4 days plus IL-1Ra or PDTC) | insulin content of islets (human islets; high glucose with IL-1Ra, 4 days) | IL-1β expression in β-cells (triple immunostaining) (IL-1β; 10 nM leptin, 48 hours) | IL-1β RNA expression of islets (quantitative RT-PCR) (IL-1β; leptin) | IL-1β release into culture medium (IL-1β; leptin, 15 hours) | IL-1β release into culture medium (IL-1β; leptin, 48 hours)
1 | Interleukin 1 receptor antagonist [IL-1Ra] | partially restored such glucose stimulation | remained unaffected | – | – | – | –
2 | leptin: rh leptin (PeproTech); protein encoded by the ob gene | – | – | induced IL-1β expression in TUNEL-positive β-cells | not significantly changed | increased IL-1β release | remained increased
